This note sets out measurements from patent publication US9365522B2, “Pyrazole amide derivative” (AMGEN INC., priority 2015, dated 2016).

Structures are written as SMILES.

The target in the assay is T1, human RORγ-LBD (Homo sapiens, UniProt P51449).
T1 construct: made in house; host or cells: E. coli (BL-21)
T1 sequence (P51449 262-518): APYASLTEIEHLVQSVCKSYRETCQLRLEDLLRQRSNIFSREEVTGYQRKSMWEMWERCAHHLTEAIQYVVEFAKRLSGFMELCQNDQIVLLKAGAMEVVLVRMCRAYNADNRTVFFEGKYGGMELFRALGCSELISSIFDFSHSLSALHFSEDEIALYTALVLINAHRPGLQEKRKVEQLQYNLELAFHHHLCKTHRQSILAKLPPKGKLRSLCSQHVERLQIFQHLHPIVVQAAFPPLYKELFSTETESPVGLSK
The experiment in a line: ROR gamma coactivator peptide recruitment Alphascreen assay (RORγ-LBD binding to GRIP1 coactivator peptide). The assay is classed as biochemical. Conditions: 5 nM human RORγ-LBD, 30 nM 7-β-hydroxycholesterol, 50 nM biotinylated GRIP1 coactivator peptide, overnight incubation at room temperature; read-out: result (pIC50, RORγ coactivator peptide recruitment Alphascreen assay) (converted). An outline of the steps:
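Alphascreen proximity read-out after overnight room-temperature incubation, yielding pIC50 from 1-in-2 compound series (2.5% DMSO final). Mixture: 50 nM biotin-GRIP1 peptide, 30 nM 7-β-hydroxycholesterol agonist, 5 nM recombinant 6×His:Flag human RORγ-LBD (aa 262-518), 50 mM HEPES pH 7.4.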
On to `C[C@@H]1C[C@@H](n2ncc(C(=O)N(CC(=O)c3c(Cl)cccc3Cl)[C@@H]3CCC34CCC4)c2C(F)(F)F)CC[C@@H]1C(=O)O` [Example 849, (1S,2R,4S)-4-(4-((2-(2,6-dichlorophenyl)-2-oxoethyl)((1R)-spiro[3.3]hept-1-yl)carbamoyl)-5-(trifluoromethyl)-1H-pyrazol-1-yl)-2-methylcyclohexanecarboxylic acid], for which the IC50 is 8.71 nM.
In the case of `CCOC(C)(C)CN(CC(=O)c1c(Cl)cncc1Cl)C(=O)c1cnn([C@H]2CC[C@](C)(C(=O)O)CC2)c1C(F)(F)F` [Example 850, trans-4-(4-((2-(3,5-dichloro-4-pyridinyl)-2-oxoethyl)(2-ethoxy-2-methylpropyl)carbamoyl)-5-(trifluoromethyl)-1H-pyrazol-1-yl)-1-methylcyclohexanecarboxylic acid] it was 12.9 nM.
Consider `C[C@@H]1C[C@@H](n2ncc(C(=O)N(CC(=O)c3c(Cl)cncc3Cl)CC3CCC4(CC3)CC4)c2C(F)(F)F)CC[C@@H]1C(=O)O` [Example 852, (1S,2R,4S)-4-(4-((2-(3,5-dichloro-4-pyridinyl)-2-oxoethyl)(spiro[2.5]oct-6-ylmethyl)carbamoyl)-5-(trifluoromethyl)-1H-pyrazol-1-yl)-2-methylcyclohexanecarboxylic acid], for which the IC50 was 891 nM.
On to `C[C@]1(C(=O)O)CC[C@H](n2ncc(C(=O)N(CC(=O)c3c(Cl)cncc3Cl)C[C@]34CC[C@H](CC3)O4)c2C(F)(F)F)CC1` [Example 853, trans-4-(4-((2-(3,5-dichloro-4-pyridinyl)-2-oxoethyl)((1s,4s)-7-oxabicyclo[221]hept-1-ylmethyl)carbamoyl)-5-(trifluoromethyl)-1H-pyrazol-1-yl)-1-methylcyclohex anecarboxylic acid], for which the IC50 was 17 nM.
Then `C[C@]1(C(=O)O)CC[C@H](n2ncc(C(=O)N(CC(=O)c3c(Cl)cncc3Cl)CC34CC(C3)C4)c2C(F)(F)F)CC1` [Example 854, trans-4-(4-((bicyclo[1.1.1]pent-1-ylmethyl)(2-(3,5-dichloro-4-pyridinyl)-2-oxoethyl)carbamoyl)-5-(trifluoromethyl)-1H-pyrazol-1-yl)-1-methylcyclohexanecarboxylic acid], with 4.68 nM; and `C[C@H]1C[C@@](C)(C(=O)O)CC[C@H]1n1ncc(C(=O)N(CC(=O)c2c(Cl)cncc2Cl)CC(C)(C)C)c1C(F)(F)F` [Example 856, (1S,3S,4R)-4-(4-((2-(3,5-dichloro-4-pyridinyl)-2-oxoethyl)(2,2-dimethylpropyl)carbamoyl)-5-(trifluoromethyl)-1H-pyrazol-1-yl)-1,3-dimethylcyclohexanecarboxylic acid], with 67.6 nM.
Then `C[C@@H]1C[C@](C)(C(=O)O)CC[C@@H]1n1ncc(C(=O)N(CC(=O)c2c(Cl)cncc2Cl)CC(C)(C)C)c1C(F)(F)F` [Example 857, (1R,3R,4S)-4-(4-((2-(3,5-dichloro-4-pyridinyl)-2-oxoethyl)(2,2-dimethylpropyl)carbamoyl)-5-(trifluoromethyl)-1H-pyrazol-1-yl)-1,3-dimethylcyclohexanecarboxylic acid], with 33.9 nM; and `CC1(C)[C@@H]2C[C@H](N(CC(=O)c3c(Cl)cccc3Cl)C(=O)c3cnn([C@H]4C[C@@H](CC(=O)O)C4)c3C(F)(F)F)C[C@@H]21` [Example 859, (cis-3-(4-((2-(2,6-dichlorophenyl)-2-oxoethyl)((1R,3r,5S)-6,6-dimethylbicyclo[3.1.0]hex-3-yl)carbamoyl)-5-(trifluoromethyl)-1H-pyrazol-1-yl)cyclobutyl)acetic acid], with 6.03 nM; and `CC(C)(C)CN(CC(=O)c1c(Cl)cncc1Cl)C(=O)c1cnn([C@H]2CC[C@]3(CC2)C[C@@H]3C(=O)O)c1C(F)(F)F` [Example 860, (1R,3r,6R)-6-(4-((2-(3,5-dichloro-4-pyridinyl)-2-oxoethyl)(2,2-dimethylpropyl)carbamoyl)-5-(trifluoromethyl)-1H-pyrazol-1-yl)spiro[2.5]octane-1-carboxylic acid], with 11.5 nM.
In the case of `C[C@@H]1C[C@H](n2ncc(C(=O)N(CC(=O)c3c(Cl)cncc3Cl)CC(C)(C)C)c2C(F)(F)F)CC[C@]1(C)C(=O)O` [Example 862, (1S,3S,4R)-4-(4-((2-(3,5-dichloro-4-pyridinyl)-2-oxoethyl)(2,2-dimethylpropyl)carbamoyl)-5-(trifluoromethyl)-1H-pyrazol-1-yl)-1,2-dimethylcyclohexanecarboxylic acid] it was 38 nM.
Turning to `CC1(CN(CC(=O)c2c(Cl)cncc2Cl)C(=O)c2cnn([C@H]3CC[C@](C)(C(=O)O)CC3)c2C(F)(F)F)CC(F)(F)C1` [Example 863, trans-4-(4-((2-(3,5-dichloro-4-pyridinyl)-2-oxoethyl)((3,3-difluoro-1-methylcyclobutyl)methyl)carbamoyl)-5-(trifluoromethyl)-1H-pyrazol-1-yl)-1-methylcyclohexanecarboxylic acid], the IC50 was 6.46 nM.
On to `C[C@@H]1C[C@H](n2ncc(C(=O)N(CC(=O)c3c(Cl)cncc3Cl)C[C@]34CC[C@H](CC3)O4)c2C(F)(F)F)CC[C@H]1C(=O)O` [Example 867, (1S,2S,4S)-4-(4-((2-(3,5-dichloro-4-pyridinyl)-2-oxoethyl)((1s,4s)-7-oxabicyclo[2.2.1]hept-1-ylmethyl)carbamoyl)-5-(trifluoromethyl)-1H-pyrazol-1-yl)-2-methylcyclohexanecarboxylic acid], for which the IC50 was 24.5 nM.
Then `CC(C)(C)CN(CC(=O)c1c(Cl)cncc1Cl)C(=O)c1cnn([C@H]2CC[C@](C)(C(=O)O)C[C@H]2F)c1C(F)(F)F` [Example 868, (1S,3R,4S)-4-(4-((2-(3,5-dichloro-4-pyridinyl)-2-oxoethyl)(2,2-dimethylpropyl)carbamoyl)-5-(trifluoromethyl)-1H-pyrazol-1-yl)-3-fluoro-1-methylcyclohexanecarboxylic acid], with 4.57 nM; and `CC(C)(C)CN(CC(=O)c1c(Cl)cncc1Cl)C(=O)c1cnn([C@@H]2CC[C@@](C)(C(=O)O)C[C@@H]2F)c1C(F)(F)F` [Example 869, (1R,3S,4R)-4-(4-((2-(3,5-dichloro-4-pyridinyl)-2-oxoethyl)(2,2-dimethylpropyl)carbamoyl)-5-(trifluoromethyl)-1H-pyrazol-1-yl)-3-fluoro-1-methylcyclohexanecarboxylic acid], with 13.8 nM.
Then `CC(C)(C)CN(CC(=O)c1c(Cl)cncc1Cl)C(=O)c1cnn([C@H]2CC[C@@](C)(C(=O)O)C[C@@H]2F)c1C(F)(F)F` [Example 870, (1R,3S,4S)-4-(4-((2-(3,5-dichloro-4-pyridinyl)-2-oxoethyl)(2,2-dimethylpropyl)carbamoyl)-5-(trifluoromethyl)-1H-pyrazol-1-yl)-3-fluoro-1-methylcyclohexanecarboxylic acid], with 575 nM; and `CC(C)(C)CN(CC(=O)c1c(Cl)cncc1Cl)C(=O)c1cnn([C@@H]2CC[C@]3(C(=O)O)CCC[C@@H]3C2)c1C(F)(F)F` [Example 871], with 5.01 nM; and `COc1ncc(Cl)c(CCN(CC(C)(C)C)C(=O)c2cnn([C@H]3CC[C@](C)(C(=O)O)CC3)c2C(F)(F)F)c1Cl` [Example 872, trans-4-(4-((2-(3,5-dichloro-2-methoxy-4-pyridinyl)ethyl)(2,2-dimethylpropyl)carbamoyl)-5-(trifluoromethyl)-1H-pyrazol-1-yl)-1-methylcyclohexanecarboxylic acid], with 97.7 nM.
Then `C[C@H]1C[C@@H](n2ncc(C(=O)N(CC(=O)c3c(Cl)cncc3Cl)CC(C)(C)C)c2C(F)(F)F)CC[C@]1(C)C(=O)O` [Example 873, (1S,2S,4S)-4-(4-((2-(3,5-dichloro-4-pyridinyl)-2-oxoethyl)(2,2-dimethylpropyl)carbamoyl)-5-(trifluoromethyl)-1H-pyrazol-1-yl)-1,2-dimethylcyclohexanecarboxylic acid], with 5.25 nM; and `C[C@@H]1C[C@H](n2ncc(C(=O)N(CC(=O)c3c(Cl)cncc3Cl)CC(C)(C)C)c2C(F)(F)F)CC[C@@]1(C)C(=O)O` [Example 874, (1R,2R,4R)-4-(4-((2-(3,5-dichloro-4-pyridinyl)-2-oxoethyl)(2,2-dimethylpropyl)carbamoyl)-5-(trifluoromethyl)-1H-pyrazol-1-yl)-1,2-dimethylcyclohexanecarboxylic acid], with 7.76 nM; and `C[C@H]1C[C@H](n2ncc(C(=O)N(CC(=O)c3c(Cl)cncc3Cl)CC(C)(C)C(F)(F)F)c2C(F)(F)F)CC[C@H]1C(=O)O` [Example 875, (1R,2S,4R)-4-(4-((2-(3,5-dichloro-4-pyridinyl)-2-oxoethyl)(3,3,3-trifluoro-2,2-dimethylpropyl)carbamoyl)-5-(trifluoromethyl)-1H-pyrazol-1-yl)-2-methylcyclohexanecarboxylic acid], with 11.7 nM.
Take `CC(C)(C)CN(CC(=O)c1c(Cl)cncc1Cl)C(=O)c1cnn([C@H]2CC[C@@]3(C(=O)O)CCC[C@H]3C2)c1C(F)(F)F` [Example 876, (3aS,6S,7aS )-6-(4-((2-(3,5-dichloropyridin-4-yl)-2-oxoethyl)(neopentyl)carbamoyl)-5-(trifluoromethyl)-1H-pyrazol-1-yl)octahydro-1H-indene-3a-carboxylic acid]: the IC50 was 6.17 nM.
